From publication PMC8617627, “Novel DYRK1A Inhibitor Rescues Learning and Memory Deficits in a Mouse Model of Down Syndrome” (Pharmaceuticals, 2021)
Several values for one entry are separate records, joined by “and”; a condition that tells them apart may be missing. Equal values may be shown once. Read-outs that look alike come from different tables or passages of the source.

Tests used:
[1] = Mouse IV pharmacokinetics (plasma and brain); assay type: in vivo; conditions: for half-life: read-out: t½ (converted)
Protocol: In the mouse model, the PK-parameters were also determined in the brain samples. […] Samples are prepared by protein precipitation and/or dilution: tissues are homogenized first. Analysis is carried out using a generic internal standard, with matrix-matched calibration standards bracketing the study samples.
Samples were analyzed by high resolution accurate mass UHPLC-TOF MS. […] The mass spectrometer was operated in full scan mode, with positive ion electrospray data acquired over the m/z mass range 100–1000.

[2] = Steady state tissue levels after administration in animal food; assay type: in vivo, mouse
Text: The highest dose provided a continuous concentration of 1.25 μmol/g both in the liver and in the brain and was used in fear conditioning experiments.
Six control euploid mice of the same genetic background as the Ts65Dn mice were used to perform this analysis; two mice per dose and three doses tested.
Prior to contextual fear conditioning experiments, all mice were exposed for three-days to either food mixture alone or food mixture with added PST-001. In addition, the mice continued to consume these same food preparations during the two days necessary to perform the behavioral testing. […] Comparisons between group means were done with Two-way factorial ANOVA, and Fisher protected least significant difference (PLSD) post hoc test was performed for all significant ANOVA (using Statistica version 13, Tibco Software, Palo Alto, CA, USA).

## COc1ccc2sc(-c3cncc(NC(C)=O)c3)nc2c1 [PST-001, N-(5-(5-Methoxybenzo[d]thiazol-2-yl)pyridin-3-yl)acetamide]
[1]; C57Bl, IV 1 mg/kg, brain
  Cmax: 867 ng/mL
  Tmax: 4.8 min
  half-life: 9 min
[1]; C57Bl, IV 1 mg/kg, plasma
  Cmax: 362 ng/mL
  Tmax: 4.8 min
  Vd: 1.39 L/kg
  clearance: 198 mL/min/kg
  half-life: 9 min
[1]; IV 1 mg/kg, brain
  AUCall: 200 h ∗ ng/mL
[1]; IV 1 mg/kg, plasma
  AUCall: 84 h ∗ ng/mL
[1]; IV bolus, plasma
  Time of Cmax: 5 min
[2]; 100 mg PST-001/kg powdered food
  continuous (steady state) concentration in the brain: 1.25 µmol/g
[2]; twice-a-day administration in the animal food of 10 mg/kg
  steady state brain concentration: 150 ng/mL
[2]; twice-a-day administration in the animal food of 10 mg/kg, 10 mg/kg
  steady state plasma level: 76 ng/mL and 0.25 μM
